# In patent US11028068B2, “Somatostatin modulators and uses thereof” (Crinetics Pharmaceuticals, Inc., priority 2017, dated 2021):
# Biological target: T1, human somatostatin receptor subtype 2 (Homo sapiens, UniProt P30874)
# T1 construct: expressed in transfected cells; host or cells: CHO (Chinese hamster ovary) cells, cultured under G-418 selection
# Experiment: cAMP assay (inhibition of cAMP activities via sst2 receptor)
# Format: cell-based
# Details: CHO cells expressing the human somatostatin receptor subtype 2, forskolin
# Description: General overview: All five SSTR subtypes are Gi coupled G-protein coupled receptors (GPCRs) that lead to decreases in intracellular cyclic AMP (cAMP) when activated by an agonist. Therefore, measurement of intracellular cAMP levels can be used to assess whether compounds of the invention are agonists of SSTR subtypes (John Kelly, Troy Stevens, W. Joseph Thompson, and Roland Seifert, Current Protocols in Pharmacology, 2005,2.2.1-2.2). One example of an intracellular cAMP assay is described below.
# One day prior to the assay, 40,000 Chinese hamster ovary (CHO) cells expressing the human somatostatin receptor subtype 2 are plated in each well of a 96-well tissue culture plate in DM-MEM growth media (Gibco) with the following additives: 10% fetal bovine serum (Gibco), 100 U/mL penicillin (Gibco), 100 ug/mL streptomycin (Gibco), 10 mM HEPES (Gibco), 1.2 mM sodium hydroxide, 0.5 mg/mL G-418 (Gibco)). The cells are cultured overnight at 37° C., 5% CO2 and 95% humidity. On the day of the assay, the media is aspirated and the cells are washed with 1X Dulbecco's phosphate buffered saline (Gibco). Next, 5 μL of assay buffer (1× Earle's Balanced Salt Solution (Gibco), 5 mM MgCl2, 10 mM HEPES, 0.1% bovine serum albumin, 0.2 mM 3-Isobutyl-1-methylxanthine (IBMX, Biomol Research Labs)) and forskolin is added. Various dilutions of the compounds of the invention are prepared in assay buffer and 5 μL of the dilutions are added to the cultured cells and incubated for 15 minutes at 37° C. (the final concentration of the compounds of the invention are typically 0-10,000 nM). 10 μL of lysis buffer (HRTF cAMP kit, Cisbio) containing cAMP detection and visualization antibodies are added and the assay is allowed incubate for 1-24 hours at room temperature. The intracellular cAMP concentrations are then measured using a commercially available detection kit (for example, the cAMP HTRF kit, Cisbio). The measured intracellular cAMP concentrations are plotted vs. the concentration of the compounds of the invention and the EC50 of the compounds are calculated using standard methods.
# T1 sequence (P30874 whole entry): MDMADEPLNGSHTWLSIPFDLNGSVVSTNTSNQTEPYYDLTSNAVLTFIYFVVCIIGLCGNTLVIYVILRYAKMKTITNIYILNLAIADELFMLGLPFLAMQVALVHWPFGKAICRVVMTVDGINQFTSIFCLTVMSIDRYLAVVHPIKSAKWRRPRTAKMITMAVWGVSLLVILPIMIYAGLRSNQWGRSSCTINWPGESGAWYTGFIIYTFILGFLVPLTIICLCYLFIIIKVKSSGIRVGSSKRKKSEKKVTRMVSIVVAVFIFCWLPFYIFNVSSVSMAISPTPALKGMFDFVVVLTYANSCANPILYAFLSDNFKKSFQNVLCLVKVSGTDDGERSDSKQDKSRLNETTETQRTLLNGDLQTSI
row,EC50 [µM],SMILES
1,0.00012,"Cc1cc(Cl)cc(-c2cnc3ccc(-c4cccc(O)c4)cc3c2C(=O)N(C)C[C@@H]2CCCN2)c1 [Compound 1-1, 3-(3-chloro-5-methylphenyl)-6-(3-hydroxyphenyl)-N-methyl-N-[(2S) -pyrrolidin-2-ylmethyl]quinoline-4-carboxamide]"
2,0.1 to 1,"CC#Cc1cnc2ccc(-c3cc(F)cc(C#N)c3)nc2c1C(=O)N(C)C[C@@H]1CCCN1 [Compound 3-7, 6-(3-cyano-5-fluorophenyl)-N-methyl-3-(prop-1-yn-1-yl)-N-[(2S)-pyrrolidin-2-ylmethyl]-1,5-naphthyridine-4-carboxamide]"
3,0.1 to 1,"CN(C[C@@H]1CCCN1)C(=O)c1c(N2CC(C)(C)OC(C)(C)C2)cnc2ccc(-c3cc(F)cc(C#N)c3)nc12 [Compound 3-49, 6-(3-cyano-5-fluorophenyl)-N-methyl-N-[(2S)-pyrrolidin-2-ylmethyl]-3-(2,2,6,6-tetramethylmorpholin-4-yl)-1,5-naphthyridine-4-carboxamide]"
4,< 0.1,"CC[C@H](N)CN(C)C(=O)c1c(-c2cc(C)cc(C)c2)cnc2ccc(-c3cc(O)cc(C#N)c3)nc12 [Compound 2-5, N-[(2S)-2-aminobutyl]-6-(3-cyano-5-hydroxyphenyl)-3-(3,5-dimethylphenyl)-N-methyl-1,5-naphthyridine-4-carboxamide]"
5,0.1 to 1,"CN(C[C@@H]1CCCN1)C(=O)c1c(-c2cccc(O)c2)cnc2ccc(-c3cccc(O)c3)nc12 [Compound 2-2, 3,6-bis(3-hydroxyphenyl)-N-methyl-N-[(2S)-pyrrolidin-2-ylmethyl]-1,5-naphthyridine-4-carboxamide]"
6,0.1 to 1,"CN(C[C@@H]1CCCN1)C(=O)c1c(N2CC3CCC(C2)O3)cnc2ccc(-c3cc(F)cc(C#N)c3)nc12 [Compound 3-70, 6-(3-cyano-5-fluorophenyl)-N-methyl-3-{8-oxa-3-azabicyclo[3.2.1]octan-3-yl}-N-[(2S) -pyrrolidin-2-ylmethyl]-1,5-naphthyridine-4-carboxamide]"
7,< 0.1,"Cc1cc(Cl)cc(-c2cnc3ccc(-c4cc(O)ccc4F)nc3c2C(=O)N(C)C[C@@H]2CCCN2)c1 [Compound 2-3, 3-(3-chloro-5-methylphenyl)-6-(2-fluoro-5-hydroxyphenyl)-N-methyl-N-[(2S)-pyrrolidin-2-ylmethyl]-1,5-naphthyridine-4-carboxamide]"
8,0.1 to 1,"Cc1cc(F)cc(-c2cnc3ccc(N4CCCC4)nc3c2C(=O)N(C)C[C@@H]2CCCN2)c1 [Compound 3-2, 3-(3-fluoro-5-methylphenyl)-N-methyl-6-(pyrrolidin-1-yl)-N-[(2S)-pyrrolidin-2-ylmethyl]-1,5-naphthyridine-4-carboxamide]"
9,< 0.1,"CN(C[C@@H]1CCCN1)C(=O)c1c(C2=CCCC2)cnc2ccc(-c3cc(F)cc(C#N)c3)nc12 [Compound 3-9, 6-(3-cyano-5-fluorophenyl)-3-(cyclopent-1-en-1-yl)-N-methyl-N-[(2S)-pyrrolidin-2-ylmethyl]-1,5-naphthyridine-4-carboxamide]"
10,0.1 to 1,Cc1cc(F)cc(-c2cnc3ccc(N4CCCC(O)C4)nc3c2C(=O)N(C)C[C@@H]2CCCN2)c1 (stereo partly drawn) [Compound 3-3]
11,< 0.1,"Cc1cc(Cl)cc(-c2cnc3ccc(-c4cccc(O)c4)nc3c2C(=O)N(C)C[C@@H]2CCCN2)c1 [Compound 2-1, 3-(3-chloro-5-methylphenyl)-6-(3-hydroxyphenyl)-N-methyl-N-[(2S) -pyrrolidin-2-ylmethyl]-1,5-naphthyridine-4-carboxamide]"
12,0.1 to 1,"CN(C[C@@H]1CCCN1)C(=O)c1c(N2CCO[C@@H](c3ccccc3)C2)cnc2ccc(-c3cc(F)cc(C#N)c3)nc12 [Compound 3-47, 6-(3-cyano-5-fluorophenyl)-N-methyl-3-[(2S)-2-phenylmorpholin-4-yl]-N-[(2S) -pyrrolidin-2-ylmethyl]-1,5-naphthyridine-4-carboxamide]"
13,0.1 to 1,"CN(C[C@@H]1CCCN1)C(=O)c1c(-c2cccc(CCC(=O)O)c2)cnc2ccc(-c3cccc(O)c3)nc12 [Compound 2-22, 3-{3-[6-(3-hydroxyphenyl)-4-{methyl[(2S)-pyrrolidin-2-ylmethyl]carbamoyl}-1,5-naphthyridin-3-yl]phenyl}propanoic acid]"
14,0.1 to 1,"CN(CC1CCCN1)C(=O)c1c(-c2cccc(CC(=O)O)c2)cnc2ccc(-c3cccc(O)c3)nc12 (stereo not drawn) [Compound 2-20, 2-{3-[6-(3-hydroxyphenyl)-4-[methyl(pyrrolidin-2-ylmethyl)carbamoyl]-1,5-naphthyridin-3-yl]phenyl}acetic acid]"
15,< 0.1,"CC[C@H](N)CN(C)C(=O)c1c(-c2cc(C)cc(F)c2)cnc2ccc(-c3cc(O)cc(C#N)c3)nc12 [Compound 2-7, N-[(2S)-2-aminobutyl]-6-(3-cyano-5-hydroxyphenyl)-3-(3-fluoro-5-methylphenyl)-N -methyl-1,5-naphthyridine-4-carboxamide]"
16,0.1 to 1,"CN(C[C@@H]1CCCN1)C(=O)c1c(N2CCOCC2)cnc2ccc(-c3cccc(O)c3)nc12 [Compound 3-12, 6-(3-hydroxyphenyl)-N-methyl-3-(morpholin-4-yl)-N-[(2S)-pyrrolidin-2-ylmethyl]-1,5-naphthyridine-4-carboxamide]"
17,0.1 to 1,"CN(C[C@@H]1CCCN1)C(=O)c1c(N2CC3CC3C2)cnc2ccc(-c3cc(F)cc(C#N)c3)nc12 (stereo partly drawn) [Compound 3-69, 3-{3-azabicyclo[3.1.0]hexan-3-yl}-6-(3-cyano-5-fluorophenyl)-N-methyl-N-[(2S) -pyrrolidin-2-ylmethyl]-1,5-naphthyridine-4-carboxamide]"
18,0.1 to 1,"CN(C[C@@H]1CCCN1)C(=O)c1c(N2CCC(F)(F)C2)cnc2ccc(-c3cc(F)cc(C#N)c3)nc12 [Compound 3-76, 6-(3-cyano-5-fluorophenyl)-3-(3,3-difluoropyrrolidin-1-yl)-N-methyl-N-[(2S)-pyrrolidin-2-ylmethyl]-1,5-naphthyridine-4-carboxamide]"
19,< 0.1,"CC[C@H](N)CN(C)C(=O)c1c(-c2cc(C)cc(Cl)c2)cnc2ccc(-c3cc(O)cc(C#N)c3)nc12 [Compound 2-6, N-[(2S)-2-aminobutyl]-3-(3-chloro-5-methylphenyl)-6-(3-cyano-5-hydroxyphenyl)-N -methyl-1,5-naphthyridine-4-carboxamide]"
20,0.1 to 1,"CN(C[C@@H]1CCCN1)C(=O)c1c(N2CCc3cc(C(F)(F)F)ccc32)cnc2ccc(-c3cc(F)cc(C#N)c3)nc12 [Compound 3-54, 6-(3-cyano-5-fluorophenyl)-N-methyl-N-[(2S)-pyrrolidin-2-ylmethyl]-3-[5-(trifluoromethyl)-2,3-dihydro-1H-indol-1-yl]-1,5-naphthyridine-4-carboxamide]"
21,0.1 to 1,"COC(=O)Cc1cccc(-c2cnc3ccc(-c4cccc(O)c4)nc3c2C(=O)N(C)C[C@@H]2CCCN2)c1 [Compound 2-21, methyl 2-{3-[6-(3-hydroxyphenyl)-4-{methyl[(2S)-pyrrolidin-2-ylmethyl]carbamoyl}-1,5-naphthyridin-3-yl]phenyl}acetate]"
22,0.1 to 1,"CN(C[C@@H]1CCCN1)C(=O)c1c(N2CCCCC2)cnc2ccc(-c3cccc(O)c3)nc12 [Compound 3-11, 6-(3-hydroxyphenyl)-N-methyl-3-(piperidin-1-yl)-N-[(2S)-pyrroldin-2-ylmethyl]-1,5-naphthyridine-4-carboxamide]"
23,0.039,"Cc1cc(Cl)cc(-c2cnc3ccc(-c4cccc(O)c4)cc3c2C(=O)N(C)C[C@H]2CCCN2)c1 (single isomer, unassigned) [Compound 1-5]"
24,0.1 to 1,"Cc1cc(F)cc(-c2cnc3ccc(-c4cnn(C)c4)cc3c2C(=O)N(C)C[C@@H]2CCCN2)c1 [Compound 3-10, 3-(3-fluoro-5-methylphenyl)-N-methyl-6-(1-methyl-1H-pyrazol-4-yl)-N-[(2S)-pyrrolidin-2-ylmethyl]quinoline-4-carboxamide]"
25,0.1 to 1,"CC#Cc1cnc2ccc(-c3cccc(O)c3)nc2c1C(=O)N(C)C[C@@H]1CCCN1 [Compound 3-18, 6-(3-hydroxyphenyl)-N-methyl-3-(prop-1-yn-1-yl)-N-((2S) -pyrrolidin-2-ylmethyl)-1,5-naphthyridine-4-carboxamide]"
26,0.1 to 1,"Cc1cccc(-c2cnc3ccc(-c4cccc(O)c4)nc3c2C(=O)N(C)C[C@@H]2CCCN2)n1 [Compound 3-5, 6-(3-hydroxyphenyl)-N-methyl-3-(6-methylpyridin-2-yl)-N-[(2S)-pyrrolidin-2-ylmethyl]-1,5-naphthyridine-4-carboxamide]"
27,< 0.1,"CN(C[C@@H]1CCCN1)C(=O)c1ccnc2ccc(-c3cccc(O)c3)nc12 [Compound 3-1, 6-(3-hydroxyphenyl)-N-methyl-N-[(2S)-pyrrolidin-2-ylmethyl]-1,5-naphthyridine-4-carboxamide]"
